The values that follow come from patent US9850225B2, “Compounds useful as immunomodulators” (BRISTOL-MYERS SQUIBB COMPANY, priority 2014, dated 2017).

In this test the target is PD-1/PD-L1 interaction (PD-1-Ig / PD-L1-His) (Homo sapiens (Human), UniProt Q9NZQ7). Put plainly: PD-1/PD-L1 Homogenous Time-Resolved Fluorescence (HTRF) binding assay. Particulars: PD-1/PD-L1 HTRF binding assay, read-out: Range or IC50. Put shortly: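 Human PD-L1-His (10 nM final) was pre-incubated with inhibitor for 15 min, then PD-1-Ig (20 nM final) was added for a further 15 min in dPBS with 0.1% BSA and 0.05% Tween-20. Binding was detected by HTRF using Eu-cryptate anti-Ig (1 nM) and APC anti-His (20 nM).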

The structures appear in SMILES notation. Where two headings read alike, the source gives them in different places.

PD-1/PD-L1 interaction (PD-1-Ig / PD-L1-His), sequence (Q9NZQ7 other isoform, or with tags, fused parts or gaps): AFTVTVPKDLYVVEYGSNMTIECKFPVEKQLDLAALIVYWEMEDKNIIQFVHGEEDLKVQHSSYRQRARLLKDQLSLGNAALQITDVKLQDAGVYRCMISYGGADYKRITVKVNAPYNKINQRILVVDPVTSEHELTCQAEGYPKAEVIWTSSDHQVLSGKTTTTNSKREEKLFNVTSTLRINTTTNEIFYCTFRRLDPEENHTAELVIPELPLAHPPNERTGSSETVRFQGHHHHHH

For the compound `Cc1c(COc2ccc(CNC[C@@H](O)CC(=O)O)c(OCc3ccc(F)c(C#N)c3)c2)cccc1-c1ccccc1` [Example 1331, (S)-4-((2-((3-cyano-4-fluorobenzyl)oxy)-4-((2-methyl-[1,1′-biphenyl]-3-yl)methoxy)benzyl)amino)-3-hydroxybutanoic acid], for the setting “value given as range class”, the IC50 was 0.0006 to 0.01 µM.

`Cc1c(COc2ccc(CN3CCCC[C@H]3C(=O)O)c(OCc3cc(C#N)ccn3)c2)cccc1-c1ccc2c(c1)OCCO2` [Example 1132, (S)-1-(2-((4-cyanopyridin-2-yl)methoxy)-4-(3-(2,3-dihydrobenzo[b][1,4]dioxin-6-yl)-2-methylbenzyloxy)benzyl)piperidine-2-carboxylic acid]: under “value given as range class”, the IC50 is 0.01 to 0.1 µM.

Take `Cc1cc(CNC[C@@H](O)CC(=O)O)c(OCc2cncc(C#N)c2)cc1OCc1cccc(-c2ccc3c(c2)OCCO3)c1C#N` [Example 1307, (S)-4-(4-(2-cyano-3-(2,3-dihydrobenzo[b][1,4]dioxin-6-yl)benzyloxy)-2-((5-cyanopyridin-3-yl)methoxy)-5-methylbenzylamino)-3-hydroxybutanoic acid]: the IC50 (value given as range class) fell in the range of 0.0006 to 0.01 µM.

Take `Cc1cc(CN[C@@](C)(CO)C(=O)O)c(OCc2cncc(C#N)c2)cc1OCc1cccc(-c2ccc3c(c2)OCCO3)c1C` [Example 1286, (S)-2-(2-((5-cyanopyridin-3-yl)methoxy)-4-(3-(2,3-dihydrobenzo[b][1,4]dioxin-6-yl)-2-methylbenzyloxy)-5-methylbenzylamino)-3-hydroxy-2-methylpropanoic acid]: where the note is “value given as range class”, the IC50 was in the range of 0.0006 to 0.01 µM.

In the case of `Cc1c(COc2cc(OCc3cccc(C#N)c3)c(CN3CCc4nc[nH]c4C3C(=O)O)cc2Cl)cccc1-c1ccc2c(c1)OCCO2` (stereo not shown) [Example 1226, 5-(5-chloro-2-((3-cyanobenzyl)oxy)-4-((3-(2,3-dihydrobenzo[b][1,4]dioxin-6-yl)-2-methylbenzyl)oxy)benzyl)-4,5,6,7-tetrahydro-3H-imidazo[4,5-c]pyridine-4-carboxylic acid], the IC50 (value given as range class) lay in the range of 0.01 to 0.1 µM.

With `CC(=O)NCCNCc1ccc(OCc2cccc(-c3ccccc3)c2C)cc1OCC(F)(F)F` [Example 1026, N-(2-((4-((2-methyl-[1,1′-biphenyl]-3-yl)methoxy)-2-(2,2,2-trifluoroethoxy)benzyl)amino)ethyl)acetamide], the IC50 (value given as range class) lay in the range of 0.1 to 20 µM.

Regarding `COC(=O)c1ccc(OC)c(COc2cc(OCc3cccc(-c4ccc5c(c4)OCCO5)c3C)c(Cl)cc2CN2CCCC[C@H]2C(=O)O)c1` [Example 3026, (S)-1-(5-chloro-4-((3-(2,3-dihydrobenzo[b][1,4]dioxin-6-yl)-2-methylbenzyl)oxy)-2-((2-methoxy-5-(methoxycarbonyl)benzyl)oxy)benzyl)piperidine-2-carboxylic acid], for the setting “value given as range class”, the IC50 was 0.1 to 20 µM.

For the compound `Cc1c(COc2cc(OCc3cncc(C#N)c3)c(CN3CCCC[C@@H]3C(=O)O)cc2Br)cccc1-c1ccc2c(c1)OCCO2` [Example 1323, (R)-1-(5-bromo-2-((5-cyanopyridin-3-yl)methoxy)-4-(3-(2,3-dihydrobenzo[b][1,4]dioxin-6-yl)-2-methylbenzyloxy)benzyl)piperidine-2-carboxylic acid], the IC50 (value given as range class) was in the range of 0.0006 to 0.01 µM.

Consider `Cc1c(COc2cc(OCc3cccc(C#N)c3)c(CN3CCN(C)CC3C(=O)O)cc2Cl)cccc1-c1ccc2c(c1)OCCO2` (stereo not shown) [Example 1224, 1-(5-chloro-2-((3-cyanobenzyl)oxy)-4-((3-(2,3-dihydrobenzo[b][1,4]dioxin-6-yl)-2-methylbenzyl)oxy)benzyl)-4-methylpiperazine-2-carboxylic acid], for which the IC50 (value given as range class) lay within 0.01 to 0.1 µM.

For the compound `Cc1c(COc2ccc(CN[C@H](CO)C(=O)O)c(OCc3cncc(C#N)c3)c2)cccc1-c1ccccc1` [Example 1327, (R)-2-((2-((5-cyanopyridin-3-yl)methoxy)-4-((2-methyl-[1,1′-biphenyl]-3-yl)methoxy)benzyl)amino)-3-hydroxypropanoic acid], the IC50 (value given as range class) fell in the range of 0.0006 to 0.01 µM.

Turning to `CC(=O)NCCNCc1ccc(OCc2cccc(-c3ccccc3)c2C)cc1OCc1ccc(F)cc1` [Example 1075, N-(2-((2-((4-fluorobenzyl)oxy)-4-((2-methyl-[1,1′-biphenyl]-3-yl)methoxy)benzyl)amino)ethyl)acetamide], the IC50 (value given as range class) was 0.1 to 20 µM.

For the compound `CC(=O)NCCNCc1ccc(OCc2cccc(-c3ccccc3)c2C)cc1OCc1ccc(F)c(Cl)c1` [Example 1110, N-(2-((2-((3-chloro-4-fluorobenzyl)oxy)-4-((2-methyl-[1,1′-biphenyl]-3-yl)methoxy)benzyl)amino)ethyl)acetamide], the IC50 (value given as range class) was in the range of 0.1 to 20 µM.

Take `Cc1cc(CN2CCCC[C@H]2C(=O)O)c(OCc2cncc(C#N)c2)cc1OCc1cccc(-c2ccc3c(c2)OCCO3)c1C#N` [Example 1309, (S)-1-(4-(2-cyano-3-(2,3-dihydrobenzo[b][1,4]dioxin-6-yl)benzyloxy)-2-((5-cyanopyridin-3-yl)methoxy)-5-methylbenzyl)piperidine-2-carboxylic acid]: the IC50 (value given as range class) was 0.0006 to 0.01 µM.

`Cc1c(COc2cc(OCc3cncc(C#N)c3)c(CN3CCCC[C@H]3C(=O)NS(=O)(=O)C3CC3)cc2Cl)cccc1-c1ccc2c(c1)OCCO2` [Example 1259, (S)-1-(5-chloro-2-((5-cyanopyridin-3-yl)methoxy)-4-((3-(2,3-dihydrobenzo[b][1,4]dioxin-6-yl)-2-methylbenzyl)oxy)benzyl)-N-(cyclopropylsulfonyl)piperidine-2-carboxamide]: the IC50 (value given as range class) is 0.0006 to 0.01 µM.

Regarding `COc1cc(OCc2cccc(-c3ccccc3)c2C)cc(OCc2cccc(C#N)c2)c1CNC[C@@H](O)CC(=O)O` [Example 1133, (S)-4-((2-((3-cyanobenzyl)oxy)-6-methoxy-4-((2-methyl-[1,1′-biphenyl]-3-yl)methoxy)benzyl)amino)-3-hydroxybutanoic acid], the IC50 (value given as range class) was in the range of 0.0006 to 0.01 µM.

For the compound `Cc1c(COc2ccc(CN[C@H](CO)CC(=O)O)c(OCc3cccc(C#N)c3)c2)cccc1-c1ccccc1` [Example 1021, (S)-3-((2-((3-cyanobenzyl)oxy)-4-((2-methyl-[1,1′-biphenyl]-3-yl)methoxy)benzyl)amino)-4-hydroxybutanoic acid], the IC50 (value given as range class) was in the range of 0.0006 to 0.01 µM.

`Cc1c(COc2cc(OCc3cccc(C#N)c3)c(CNC(CO)(Cc3ccccc3)C(=O)O)cc2Cl)cccc1-c1ccc2c(c1)OCCO2` (stereo not shown) [Example 1218, 2-benzyl-2-((5-chloro-2-((3-cyanobenzyl)oxy)-4-((3-(2,3-dihydrobenzo[b][1,4]dioxin-6-yl)-2-methylbenzyl)oxy)benzyl)amino)-3-hydroxypropanoic acid]: under “numeric value”, the IC50 was found to be 0.0101 µM.

As to `Cc1c(COc2cc(OCc3cncc(C#N)c3)c(CN3CCCC[C@H]3C(=O)NS(=O)(=O)C(C)C)cc2Cl)cccc1-c1ccc2c(c1)OCCO2` [Example 1260, (S)-1-(5-chloro-2-((5-cyanopyridin-3-yl)methoxy)-4-((3-(2,3-dihydrobenzo[b][1,4]dioxin-6-yl)-2-methylbenzyl)oxy)benzyl)-N-(isopropylsulfonyl)piperidine-2-carboxamide], under “value given as range class”, the IC50 is 0.0006 to 0.01 µM.

Consider `Cc1c(COc2cc(OCc3cccc(C#N)c3)c(CN[C@@H](Cc3ccccn3)C(=O)O)cc2Cl)cccc1-c1ccc2c(c1)OCCO2` [Example 1221, (S)-2-((5-chloro-2-((3-cyanobenzyl)oxy)-4-((3-(2,3-dihydrobenzo[b][1,4]dioxin-6-yl)-2-methylbenzyl)oxy)benzyl)amino)-3-(pyridin-2-yl)propanoic acid], for which, where the note is “value given as range class”, the IC50 fell in the range of 0.0006 to 0.01 µM.

As for `Cc1cc(OCc2cccc(-c3ccc4c(c3)OCCO4)c2C)cc(OCc2cncc(C#N)c2)c1CNC[C@@H](O)CC(=O)O` [Example 1006, (S)-4-(2-((5-cyanopyridin-3-yl)methoxy)-4-(3-(2,3-dihydrobenzo[b][1,4]dioxin-6-yl)-2-methylbenzyloxy)-6-methylbenzylamino)-3-hydroxybutanoic acid], the IC50 (value given as range class) was 0.0006 to 0.01 µM.

Take `Cc1c(COc2cc(OCc3cncc(C#N)c3)c(CN[C@@H](CCCCN)C(=O)O)cc2Cl)cccc1-c1ccc2c(c1)OCCO2` [Example 2004, (S)-6-amino-2-((5-chloro-2-((5-cyanopyridin-3-yl)methoxy)-4-((3-(2,3-dihydrobenzo[b][1,4]dioxin-6-yl)-2-methylbenzyl)oxy)benzyl)amino)hexanoic acid]: the IC50 (value given as range class) lay in the range of 0.0006 to 0.01 µM.

As for `CCc1cc(CN[C@](C)(CO)C(=O)O)c(OCc2cccc(C#N)c2)cc1OCc1cccc(-c2ccc3c(c2)OCCO3)c1C` [Example 1291, (R)-2-(2-(3-cyanobenzyloxy)-4-(3-(2,3-dihydrobenzo[b][1,4]dioxin-6-yl)-2-methylbenzyloxy)-5-ethylbenzylamino)-3-hydroxy-2-methylpropanoic acid], the IC50 (value given as range class) lay within 0.0006 to 0.01 µM.

For `Cc1cc(OCc2cccc(-c3ccc4c(c3)OCCO4)c2C)cc(OCc2cncc(C#N)c2)c1CN[C@](C)(CO)C(=O)O` [Example 1008, (R)-2-(2-((5-cyanopyridin-3-yl)methoxy)-4-(3-(2,3-dihydrobenzo[b][1,4]dioxin-6-yl)-2-methylbenzyloxy)-6-methylbenzylamino)-3-hydroxy-2-methylpropanoic acid], the IC50 (value given as range class) fell in the range of 0.0006 to 0.01 µM.

Regarding `Cc1c(COc2cc(OCc3cncc(S(C)(=O)=O)c3)c(CN[C@@](C)(CO)C(=O)O)cc2Cl)cccc1-c1ccc2c(c1)OCCO2` [Example 3012, (S)-2-((5-chloro-4-((3-(2,3-dihydrobenzo[b][1,4]dioxin-6-yl)-2-methylbenzyl)oxy)-2-((5-(methylsulfonyl)pyridin-3-yl)methoxy)benzyl)amino)-3-hydroxy-2-methylpropanoic acid], where the note is “value given as range class”, the IC50 is 0.0006 to 0.01 µM.

In the case of `Cc1c(COc2cc(OCc3cncc(C#N)c3)c(CN[C@@H](CC(=O)O)C(=O)O)cc2Cl)cccc1-c1ccc2c(c1)OCCO2` [Example 3023, (S)-2-((5-chloro-2-((5-cyanopyridin-3-yl)methoxy)-4-((3-(2,3-dihydrobenzo[b][1,4]dioxin-6-yl)-2-methylbenzyl)oxy)benzyl)amino)succinic acid], the IC50 (value given as range class) was 0.0006 to 0.01 µM.

The term IC50 denotes the concentration that gives 50% inhibition.
